Measurements as given in BigSolDB 2.1.

| solubility (mole fraction) (in ethanol, 283.15 K) | solubility (mole fraction) (in ethanol, 288.15 K) | solubility (mole fraction) (in ethanol, 293.15 K) | solubility (mole fraction) (in ethanol, 298.15 K) | solubility (mole fraction) (in ethanol, 303.15 K) | solubility (mole fraction) (in ethanol, 308.15 K) | solubility (mole fraction) (in ethanol, 313.15 K) | solubility (mole fraction) (in ethanol, 318.15 K) | solubility (mole fraction) (in ethanol, 323.15 K) | solubility (mole fraction) (in ethyl acetate, 283.15 K) | solubility (mole fraction) (in ethyl acetate, 288.15 K) | solubility (mole fraction) (in ethyl acetate, 293.15 K) | solubility (mole fraction) (in ethyl acetate, 298.15 K) | solubility (mole fraction) (in ethyl acetate, 303.15 K) | solubility (mole fraction) (in ethyl acetate, 308.15 K) | solubility (mole fraction) (in ethyl acetate, 313.15 K) | solubility (mole fraction) (in ethyl acetate, 318.15 K) | solubility (mole fraction) (in ethyl acetate, 323.15 K) | SMILES |
| --- | --- | --- | --- | --- | --- | --- | --- | --- | --- | --- | --- | --- | --- | --- | --- | --- | --- | --- |
| 0.0673 | 0.0698 | 0.0734 | 0.0785 | 0.082 | 0.0854 | 0.0902 | 0.0938 | 0.0985 | 0.109 | 0.115 | 0.118 | 0.125 | 0.128 | 0.133 | 0.137 | 0.142 | 0.15 | COc1cc(C=O)ccc1O |
| 0.0358 | 0.0381 | 0.0414 | 0.0461 | 0.0514 | 0.0559 | 0.0621 | 0.0675 | 0.0735 | 0.00928 | 0.0101 | 0.0114 | 0.0129 | 0.0145 | 0.0164 | 0.0185 | 0.0208 | 0.0232 | O=C(O)/C=C/c1ccc(O)cc1 |
